# According to PMC10449633 (Nature Chemical Biology, 2023):
# Where two headings read alike, the source gives them in different places. Numbered stars: 1 amine (or outer) side, 2 acyl side, 3 side chain; on linkers, the order of the positions; unused ones are H or OH. Square brackets hold non-standard residues; d marks the D form. Peptide text beside a SMILES is read from it. ξ: configuration not given here. X1 = CN(C(Cc1cn(Cc2ccc(Br)cc2)c2ccccc12)C(=O)[*:2])[*:1]; ξAla(CF3) = NC(CC(F)(F)F)C(=O)O; X2 = N#CCCC(O[*:1])C(=O)[*:2]; NMeL = CN[CH](CC(C)C)C(=O)O; NMeA = CN[CH](C)C(=O)O
# What was measured:
# Sec61α S82P = Sec61α S82P (Canis lupus familiaris, UniProt P38377, S82P); assay: Luciferase reporter assay in HEK293 cells expressing Sec61α S82P; set-up: remaining activity: dose or concentration left out as unconfirmed; conditions: HEK293, 24 h, read-out: luciferase reporter activity (% of no-drug control), S82P
# Sec61α S82P, sequence (P60468 whole entry): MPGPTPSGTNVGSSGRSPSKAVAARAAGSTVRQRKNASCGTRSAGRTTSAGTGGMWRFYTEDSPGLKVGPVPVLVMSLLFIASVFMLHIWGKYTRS
# Sec61α S82P, sequence (P38377 whole entry S82P): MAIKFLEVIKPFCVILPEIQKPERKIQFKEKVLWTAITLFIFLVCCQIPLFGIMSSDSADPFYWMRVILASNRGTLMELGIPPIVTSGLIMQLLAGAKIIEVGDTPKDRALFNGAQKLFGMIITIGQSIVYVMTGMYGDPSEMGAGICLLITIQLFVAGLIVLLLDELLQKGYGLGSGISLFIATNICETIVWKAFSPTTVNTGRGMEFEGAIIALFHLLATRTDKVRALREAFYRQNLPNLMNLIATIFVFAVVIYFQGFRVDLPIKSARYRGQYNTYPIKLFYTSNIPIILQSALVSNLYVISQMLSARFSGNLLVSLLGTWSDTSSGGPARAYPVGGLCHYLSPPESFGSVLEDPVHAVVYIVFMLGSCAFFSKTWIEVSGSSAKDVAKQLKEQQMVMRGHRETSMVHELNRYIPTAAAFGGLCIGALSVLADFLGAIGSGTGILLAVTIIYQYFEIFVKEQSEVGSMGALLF
# Sec61α S82P, sequence (P60059 whole entry, further chain): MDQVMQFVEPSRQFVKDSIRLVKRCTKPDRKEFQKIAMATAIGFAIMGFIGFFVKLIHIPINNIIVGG
# Experimental: (§1) Data are mean values ± s.d. from n = 2 independent experiments.
# (§2) HEK293T cells (0.3 × 10^6) were seeded per well of a six-well plate and incubated at 37 °C in 5% CO2 for 24 h to adhere. Each of the two wells was transfected with 1 µg of plasmid encoding a luciferase with the signal peptide of either VCAM1 or pPL using PEI in a 5:1 ratio, after which cells were returned to the incubator for a further 24 h. Transfected cells were then resuspended following trypsinization, cell count estimated using a TC20 Automated Cell Counter (BioRad) and diluted to seed a 96-well flat-bottom plate with 1.6 × 10^4 cells per well. […] Cells were then incubated for a further 24 h, after which the luciferase-containing media were transferred to a clean 96-well plate and stored at −20 °C. Luciferase activity of the media was estimated using a Gaussia-GLOW Juice Luciferase Assay kit from PJK Biotech GmbH as per the manufacturer’s instructions. Luminescence was measured using an EnSpire Multimode plate reader (PerkinElmer). Background luminescence from media placed in a well with neither cells nor drug was subtracted from all values, and measurements were calculated as a percentage of luminescence intensity of a well expressing the appropriate luciferase construct in the absence of any drug. Curves were fitted, and IC50 values were calculated using GraphPad Prism 8.
# (§3) HEK293 Flp-In T-REx cells (Thermo Fisher Scientific, R78007) were cultured in Dulbecco’s modified Eagle’s medium (Gibco) supplemented with 10% FBS (Gibco) at 37 °C in a humidified 5% CO2 atmosphere. Approximately 0.3 µg of pOG44 and 1 µg of targeting construct plasmids were mixed in 250 µl of OptiMEM (Thermo Fisher Scientific, 51985-026). A total of 3 µl (3 µg) Lipofectamine3000 transfection reagent was then added to the DNA mix and incubated at room temperature for 20 min, and the whole mixture was added to the cells. Cells were exposed to 100 µg ml^−^1 hygromycin B (Invitrogen) and 10 µg ml^−^1 blasticidin for 3–4 weeks until the appearance of resistant colonies. Colonies were expanded into T75 flasks and induced with doxycycline (Sigma-Aldrich, D9891) at a concentration of 1–5 µg ml^−^1 for 48 h. Cells were collected, and total RNA was extracted followed by cDNA amplification and sequencing of Sec61 with gene-specific PCR primers to confirm. Cells were then used for the luciferase reporter assays as above.
# (§4) Data are mean values ± SD and are representative of n = 2 independent experiments.
# Sec61α T86M = Sec61α T86M (Canis lupus familiaris, UniProt P38377, T86M); assay: Luciferase reporter assay in HEK293 cells expressing Sec61α T86M; conditions: HEK293, 24 h, read-out: luciferase reporter activity (% of no-drug control), T86M
# Sec61α T86M, sequence (P60468 whole entry): as the sequence (P60468 whole entry) above
# Sec61α T86M, sequence (P38377 whole entry T86M): as the sequence (P38377 whole entry S82P) above, with P82S, T86M counted along it
# Sec61α T86M, sequence (P60059 whole entry, further chain): as the sequence (P60059 whole entry, further chain) above
# Experimental: as §1, §2, §3, §4
# Sec61α N300A = Sec61α N300A (Canis lupus familiaris, UniProt P38377, N300A); assay: Luciferase reporter assay in HEK293 cells expressing Sec61α N300A; set-up: remaining activity: dose or concentration left out as unconfirmed
# Sec61α N300A, sequence (P60468 whole entry): as the sequence (P60468 whole entry) above
# Sec61α N300A, sequence (P60059 whole entry, further chain): as the sequence (P60059 whole entry, further chain) above
# Sec61α N300A, sequence (P38377 whole entry N300A): as the sequence (P38377 whole entry S82P) above, with P82S, N300A counted along it
# Experimental: as §1, §2
# WT canine Sec61 was cloned into pcDNA5/FRT/TO (Thermo Fisher Scientific), and point mutations were generated using PCR. All mutants were sequence verified. HEK293 Flp-In T-REx cells (Thermo Fisher Scientific, R78007) were cultured in Dulbecco’s modified Eagle’s medium (Gibco) supplemented with 10% FBS (Gibco) at 37 °C in a humidified 5% CO2 atmosphere. Approximately 0.3 µg of pOG44 and 1 µg of targeting construct plasmids were mixed in 250 µl of OptiMEM (Thermo Fisher Scientific, 51985-026). A total of 3 µl (3 µg) Lipofectamine3000 transfection reagent was then added to the DNA mix and incubated at room temperature for 20 min, and the whole mixture was added to the cells. Cells were exposed to 100 µg ml^−^1 hygromycin B (Invitrogen) and 10 µg ml^−^1 blasticidin for 3–4 weeks until the appearance of resistant colonies. Colonies were expanded into T75 flasks and induced with doxycycline (Sigma-Aldrich, D9891) at a concentration of 1–5 µg ml^−^1 for 48 h. Cells were collected, and total RNA was extracted followed by cDNA amplification and sequencing of Sec61 with gene-specific PCR primers to confirm. Cells were then used for the luciferase reporter assays as above.
# as §4
# Sec61α S305A = Sec61α S305A (Canis lupus familiaris, UniProt P38377, S305A); assay: Luciferase reporter assay in HEK293 cells expressing Sec61α S305A; set-up: remaining activity: dose or concentration left out as unconfirmed; conditions: HEK293, 24 h, read-out: luciferase reporter activity (% of no-drug control), S305A
# Sec61α S305A, sequence (P38377 whole entry S305A): as the sequence (P38377 whole entry S82P) above, with P82S, S305A counted along it
# Sec61α S305A, sequence (P60059 whole entry, further chain): as the sequence (P60059 whole entry, further chain) above
# Sec61α S305A, sequence (P60468 whole entry, further chain): as the sequence (P60468 whole entry) above
# Experimental: as §1, §2, §3, §4
# Wild Type Sec61α = Wild Type Sec61α (Canis lupus familiaris, UniProt P38377); assay: Luciferase reporter assay in HEK293 Flp-In T-REx cells expressing Wild Type Sec61α; set-up: remaining activity: dose or concentration left out as unconfirmed; conditions: HEK293, 24 h, read-out: luciferase reporter activity (% of no-drug control), Wild Type
# Wild Type Sec61α, sequence (P38377 whole entry): as the sequence (P38377 whole entry S82P) above, with P82S counted along it
# Wild Type Sec61α, sequence (P60468 whole entry, further chain): as the sequence (P60468 whole entry) above
# Wild Type Sec61α, sequence (P60059 whole entry, further chain): as the sequence (P60059 whole entry, further chain) above
# Experimental: as §1, §2, §3, §4
smiles,measurement,setting,value
CC(C)CC1NC(=O)C(Cc2cn(Cc3ccc(Br)cc3)c3ccccc23)N(C)C(=O)C(CC(F)(F)F)NC(=O)C(CC(C)C)N(C)C(=O)C(CC(F)(F)F)NC(=O)C(CCC#N)OC(=O)C(C)N(C)C1=O (stereo not shown) [KZR-8445] (cyclo([X1]L[NMeA][X2][ξAla(CF3)][NMeL][ξAla(CF3)]); configuration not given here),remaining activity,Sec61α S82P; Drug nM (log10) 2.09151,22.4%
same,remaining activity,Sec61α S82P; Drug nM (log10) 2.56864,10.1%
same,remaining activity,Sec61α S82P; Drug nM (log10) 3.04576,4.21%
same,remaining activity,Sec61α S82P; Drug nM (log10) 3.52288,2.82%
same,remaining activity at 0.004 µM,Sec61α S82P; Drug nM (log10) 4,3.25%
same,remaining activity at 0.00050805 µM,Sec61α S82P; Drug nM (log10) -0.29409,102%
same,remaining activity at 0.00018303 µM,Sec61α T86M; Drug nM (log10) 0.18303,84.6%
same,remaining activity at 0.000660151 µM,Sec61α T86M; Drug nM (log10) 0.660151,76%
same,remaining activity at 0.00113727 µM,Sec61α T86M; Drug nM (log10) 1.13727,53.5%
same,remaining activity,Sec61α T86M; Drug nM (log10) 1.61439,28.5%
same,remaining activity,Sec61α T86M; Drug nM (log10) 2.09151,12.1%
same,remaining activity,Sec61α T86M; Drug nM (log10) 2.56864,5.08%
same,remaining activity,Sec61α T86M; Drug nM (log10) 3.04576,2.62%
same,remaining activity,Sec61α T86M; Drug nM (log10) 3.52288,2.32%
same,remaining activity at 0.004 µM,Sec61α T86M; Drug nM (log10) 4,2.59%
same,remaining activity at 0.00018303 µM,"Sec61α N300A; HEK293, 24 h, read-out: luciferase reporter activity (% of no-drug control), N300A, Drug nM (log10) 0.18303",95.9%
same,remaining activity at 0.000660151 µM,"Sec61α N300A; HEK293, 24 h, read-out: luciferase reporter activity (% of no-drug control), N300A, Drug nM (log10) 0.660151",88.9%
same,remaining activity at 0.00113727 µM,"Sec61α N300A; HEK293, 24 h, read-out: luciferase reporter activity (% of no-drug control), N300A, Drug nM (log10) 1.13727",80.9%
same,remaining activity,"Sec61α N300A; HEK293, 24 h, read-out: luciferase reporter activity (% of no-drug control), N300A, Drug nM (log10) 1.61439",74.8%
same,remaining activity,"Sec61α N300A; HEK293, 24 h, read-out: luciferase reporter activity (% of no-drug control), N300A, Drug nM (log10) 2.09151",69.1%
same,remaining activity,"Sec61α N300A; HEK293, 24 h, read-out: luciferase reporter activity (% of no-drug control), N300A, Drug nM (log10) 2.56864",69.9%
same,remaining activity,"Sec61α N300A; HEK293, 24 h, read-out: luciferase reporter activity (% of no-drug control), N300A, Drug nM (log10) 3.04576",64%
same,remaining activity,"Sec61α N300A; HEK293, 24 h, read-out: luciferase reporter activity (% of no-drug control), N300A, Drug nM (log10) 3.52288",62%
same,remaining activity at 0.004 µM,"Sec61α N300A; HEK293, 24 h, read-out: luciferase reporter activity (% of no-drug control), N300A, Drug nM (log10) 4",67.2%
same,remaining activity at 0.000508 µM,"Sec61α N300A; HEK293, 24 h, read-out: luciferase reporter activity (% of no-drug control), N300A, Drug nM (log10) -0.29409",96.5%
same,effect of N300A Sec61α expression on sensitivity in secreted GLuc assay,Sec61α N300A; HEK293 cells,conferred resistance
same,remaining activity at 0.00018303 µM,Sec61α S305A; Drug nM (log10) 0.18303,82.1%
same,remaining activity at 0.000660151 µM,Sec61α S305A; Drug nM (log10) 0.660151,68.1%
same,remaining activity at 0.00113727 µM,Sec61α S305A; Drug nM (log10) 1.13727,47.4%
same,remaining activity,Sec61α S305A; Drug nM (log10) 1.61439,27.2%
same,remaining activity,Sec61α S305A; Drug nM (log10) 2.09151,13%
same,remaining activity,Sec61α S305A; Drug nM (log10) 2.56864,5.54%
same,remaining activity,Sec61α S305A; Drug nM (log10) 3.04576,3.19%
same,remaining activity,Sec61α S305A; Drug nM (log10) 3.52288,2.55%
same,remaining activity at 0.004 µM,Sec61α S305A; Drug nM (log10) 4,3.24%
same,remaining activity at 0.00050805 µM,Sec61α S305A; Drug nM (log10) -0.29409,89.3%
same,remaining activity at 0.00018303 µM,Wild Type Sec61α; Drug nM (log10) 0.18303,85.5%
same,remaining activity at 0.000660151 µM,Wild Type Sec61α; Drug nM (log10) 0.660151,69.5%
same,remaining activity at 0.00113727 µM,Wild Type Sec61α; Drug nM (log10) 1.13727,51.6%
same,remaining activity,Wild Type Sec61α; Drug nM (log10) 1.61439,27.8%
same,remaining activity,Wild Type Sec61α; Drug nM (log10) 2.09151,11.4%
same,remaining activity,Wild Type Sec61α; Drug nM (log10) 2.56864,4.55%
same,remaining activity,Wild Type Sec61α; Drug nM (log10) 3.04576,2.42%
same,remaining activity,Wild Type Sec61α; Drug nM (log10) 3.52288,1.93%
same,remaining activity at 0.004 µM,Wild Type Sec61α; Drug nM (log10) 4,2.26%
same,remaining activity at 0.00050805 µM,Wild Type Sec61α; Drug nM (log10) -0.29409,91.1%
